Eight molecules from ChEMBL document CHEMBL3217435, “Unfolded and macrocyclic ammonium derivatives of diterpenoids steviol and isosteviol having choline moieties. Synthesis and inhibitory activities toward acetylcholine- and butyrylcholinesterases” (Medchemcomm, 2012) can be followed below.

What is called IC50 is the point on the concentration scale where inhibition reaches its midpoint. High values mean weaker potency in that assay, low ones greater potency in that assay.

The structures appear in SMILES notation. Where only a bound is given, the exact number is not on record here.

Experiment [1] concerns the target Acetylcholinesterase (Homo sapiens, UniProt P22303). Kind of experiment: Inhibition of human erythrocyte AChE using acetylthiocholine iodide as substrate by visible spectrophotometry.
For experiment [2], the target named is Cholinesterase (Homo sapiens, UniProt P06276). Kind of experiment: Inhibition of human serum BChE using butyrylthiocholine iodide as substrate by visible spectrophotometry.
Cholinesterase, sequence (P06276 whole entry): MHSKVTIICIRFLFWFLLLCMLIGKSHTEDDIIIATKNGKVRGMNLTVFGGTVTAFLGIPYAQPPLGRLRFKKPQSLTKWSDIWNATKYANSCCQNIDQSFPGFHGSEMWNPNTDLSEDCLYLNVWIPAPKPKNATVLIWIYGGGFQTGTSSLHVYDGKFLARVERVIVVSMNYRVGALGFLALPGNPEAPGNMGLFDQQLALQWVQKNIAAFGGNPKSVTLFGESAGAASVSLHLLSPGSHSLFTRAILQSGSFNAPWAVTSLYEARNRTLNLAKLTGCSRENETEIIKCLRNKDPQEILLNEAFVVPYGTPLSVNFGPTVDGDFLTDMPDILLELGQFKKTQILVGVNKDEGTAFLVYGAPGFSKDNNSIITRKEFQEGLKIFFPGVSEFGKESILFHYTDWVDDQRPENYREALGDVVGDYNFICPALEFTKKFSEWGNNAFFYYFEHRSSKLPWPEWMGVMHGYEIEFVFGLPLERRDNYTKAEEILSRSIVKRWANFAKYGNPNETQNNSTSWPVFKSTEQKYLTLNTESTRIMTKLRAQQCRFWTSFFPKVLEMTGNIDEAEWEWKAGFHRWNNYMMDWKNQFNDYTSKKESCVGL

Acetylcholinesterase, sequence (P22303 whole entry): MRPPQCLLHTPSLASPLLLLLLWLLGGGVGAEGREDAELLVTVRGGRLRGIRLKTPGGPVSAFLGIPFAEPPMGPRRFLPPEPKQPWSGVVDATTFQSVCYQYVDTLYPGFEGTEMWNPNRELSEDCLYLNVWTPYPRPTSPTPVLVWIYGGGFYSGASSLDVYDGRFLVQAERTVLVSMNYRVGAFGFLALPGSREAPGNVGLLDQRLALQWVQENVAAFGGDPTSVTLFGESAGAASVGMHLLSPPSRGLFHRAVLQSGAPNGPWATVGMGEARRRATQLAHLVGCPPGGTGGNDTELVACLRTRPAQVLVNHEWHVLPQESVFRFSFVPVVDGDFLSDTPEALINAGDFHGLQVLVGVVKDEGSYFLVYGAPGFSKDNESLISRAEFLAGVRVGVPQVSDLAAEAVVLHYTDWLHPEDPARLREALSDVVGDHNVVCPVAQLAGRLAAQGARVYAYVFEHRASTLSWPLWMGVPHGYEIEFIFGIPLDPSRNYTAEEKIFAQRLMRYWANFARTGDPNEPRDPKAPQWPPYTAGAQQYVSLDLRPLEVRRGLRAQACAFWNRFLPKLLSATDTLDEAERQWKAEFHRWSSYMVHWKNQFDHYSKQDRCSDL

As for `C[C@@]12CC[C@@H]3[C@@](CC[C@H]4[C@@]3(C)CCC[C@@]4(C)C(=O)OCC[N+](C)(C)C)(CC1=O)C2`, the IC50 came to 150 µM in experiment [1] and 30 µM in experiment [2].

Take `C[C@@]12CC[C@@H]3[C@@](CC[C@H]4[C@@]3(C)CCC[C@@]4(C)C(=O)OCC[N+](C)(C)Cc3ccccc3)(CC1=O)C2`: the half-maximal inhibitory concentration (IC50) worked out at 30 µM in experiment [1] and 6.7 µM in experiment [2].

On to `C[C@@]12CC[C@@H]3[C@@](CC[C@H]4[C@@]3(C)CCC[C@@]4(C)C(=O)OCC[N+](C)(C)CCCCCCCCCC[N+](C)(C)CCOC(=O)[C@]3(C)CCC[C@@]4(C)[C@@H]5CC[C@@]6(C)C[C@]5(CC[C@@H]43)CC6=O)(CC1=O)C2`, for which the IC50 in experiment [1] stood at 88 µM; in experiment [2], 65 µM.

`C[C@@]12CC[C@@H]3[C@@](CC[C@H]4[C@@]3(C)CCC[C@@]4(C)C(=O)OCC[N+](C)(C)CCCCCCCCCCCC[N+](C)(C)CCOC(=O)[C@]3(C)CCC[C@@]4(C)[C@@H]5CC[C@@]6(C)C[C@]5(CC[C@@H]43)CC6=O)(CC1=O)C2`: the half-inhibitory concentration (IC50) is 2.2 µM in experiment [1] and 10 µM in experiment [2].

As for `C[C@@]12CC[C@@H]3[C@]4(CC[C@H]5[C@@]3(C)CCC[C@@]5(C)C(=O)OCC[N+](C)(C)CCCCCCCCC[N+](C)(C)CCOC(=O)[C@]3(C)CCC[C@@]5(C)[C@@H]6CC[C@@]7(C)C[C@]6(CC[C@@H]53)C[C@H]7OC(=O)CCCCCCCCC(=O)O[C@@H]1C4)C2`, the figures for the IC50 in experiment [1] and in experiment [2] were 5 µM and 60 µM, respectively.

Take `CC[N+](CC)(CC)CCOCCOCCOC(=O)[C@]1(C)CCC[C@@]2(C)[C@@H]3CC[C@@]4(C)C[C@]3(CC[C@@H]21)CC4=O`: the figures for the half-inhibitory concentration (IC50) in experiment [1] and in experiment [2] were 80 µM and over 1000 µM, respectively.

As to `C[C@H]1C[C@@]23CC[C@H]4[C@@](C)(CCC[C@@]4(C)C(=O)OCC[N+](C)(C)C)[C@@H]2CC[C@]1(Cl)C3`, the IC50 was 34 µM in experiment [1] and 4.2 µM in experiment [2].

Take `C[C@H]1C[C@@]23CC[C@H]4[C@@](C)(CCC[C@@]4(C)C(=O)OCC[N+](C)(C)Cc4ccccc4)[C@@H]2CC[C@]1(Cl)C3`: the IC50 amounted to 9 µM in experiment [1] and 1.6 µM in experiment [2].
